Here are results for one compound from PMC11940764 (2025).

Assay [1] concerns poly(A) (RNA, polymer) A. Description: fluorescence titration, site-independent model. The following applies: TE buffer (Tris-HCl 10 mM, EDTA 1 mM) pH 8.0; dye 1 µM; unit not given.
Assay [2] deals with poly(A)·poly(U) (RNA, polymer) A/U. Description: fluorescence titration; CD (exciton-coupled ICD). Particulars: fluorescence: TE buffer pH 8.0, dye 1 µM; CD: phosphate buffer 10 mM pH 7.5; no Kb given.

Regarding `COc1cc2c(/C=C3/Sc4ccccc4N3C)cc[n+](C)c2cc1OC`, the Kb in assay [1] is listed as 9.5 × 10^6. Moreover, the binding result in assay [2] was “yes”.
